Reference: patent US4782074A (priority 1987, dated 1988)

What was measured:
Format in all cases: in vivo
[1] = system: Phytophthora infestans; assay: whole plant or invertebrate; settings: in Solanum lycopersicum, 168 h, read-out: % Control TLB
[2] = system: Erysiphe polygoni; assay: Bean Powdery Mildew control (Example A); settings: 240 h, seedling bean plants, inoculated 1 day after spray, 10 days, relative to untreated check plants, read-out: % Control BPM
Experimental: The compounds of the invention were tested for the control of the Bean Powdery Mildew organism Erysiphe polygoni. Seedling bean plants were sprayed with a 250-ppm solution of the test compound in acetone, water and a nonionic emusifier. The sprayed plants were then inoculated 1 day later with the organism. The plants were maintained for 10 days at temperatures of 68° F. at night with daytime temperatures of 72° F. to 80° F.; relative humidity was maintained at 40% to 60%. The percent disease control provided by a given test compound was based on the percent disease reduction relative to the untreated check plants.

[3] = system: Alternaria solani conidia; assay: Tomato Early Blight control (Example D); settings: 288 h, tomato seedlings, Bonny Best, inoculated 1 day after spray, relative to untreated check plants, read-out: % Control TEB
Experimental: Compounds of the invention were tested for the control of the Tomato Early Blight organism Alternaria solani conidia. Tomato (variety Bonny Best) seedlings of 6- to 7-weeks old were used. The tomato plants were sprayed with a 250-ppm solution of the test compound in an acetone-and-water solution containing a small amount of a nonionic emulsifier. The sprayed plants were inoculated 1 day later with the organism, placed in the environmental chamber and incubated at 66° F. to 68° F. and 100% relative humidity for 24 hours. Following the incubation, the plants were maintained in a greenhouse for about 12 days. Percent disease control was based on the percent disease development on untreated check plants.

[4] = system: Plasmopara viticola; assay: Grape Downy Mildew control (Example E); settings: detached grape leaves, cultivar Emperor, relative to untreated check plants, read-out: % Control GDM
Experimental: The compounds of the invention were tested for the control of the Grape Downy Mildew organism Plasmopara viticola. Detached leaves, between 70 mm and 85 mm in diameter, 7-week-old Vitis vinifera cultivar Emperor grape seedlings were used as hosts. The leaves were sprayed with a 250-ppm solution of the test compound in acetone. The sprayed leaves were dried, inoculated with a spore suspension of the organism, placed in a humid environmental chamber and incubated at 66° F. to 68° F. and about 100% relative humidity. After incubation for 2 days, the plants were then held in a greenhouse 7 to 9 days; then the amount of disease control was determined. The percent disease control provided by a given test compound was based on the percent disease reduction relative to untreated check plants.

[5] = system: Uromyces phaseoli tipica; assay: Leaf Rust / Bean Rust control (Example F); settings: 336 h, pinto bean plants, rated after about 14 days, relative to untreated check plants, read-out: % Control BR
Experimental: The Leaf Rust test was made using pinto beans. The pathogen was Uromyces phaseoli tipica. The pinto bean plants were sprayed with a 250-ppm solution of the test compound in an acetone-water mixture containing a nonionic emulsifier. The treated plants were inoculated thereafter with the pathogen and then incubated in an environmental chamber for approximately 20 hours at 100% relative humidity and a temperature of 68° F. to 70° F. The plants were then removed from the chamber, allowed to dry, and then maintained in a greenhouse at a 60% to 80% relative humidity. The rate of infection on the leaves was made after about 14 days. The percent disease control provided by a given test compound was based on the percent disease reduction relative to untreated check plants.

[6] = system: Piricularia oryzae; assay: whole plant or invertebrate; settings: Pyricularia oryzae, read-out: % Control RB
[7] = system: Septoria apii; assay: whole plant or invertebrate; settings: 336 h, read-out: % Control CLB

Row | Compound | pest or weed control at 250 ppm [1] | pest or weed control at 250 ppm [2] | pest or weed control at 250 ppm [3] | pest or weed control at 250 ppm [4] | pest or weed control at 250 ppm [5] | pest or weed control at 625 ppm [6] | pest or weed control at 250 ppm [7]
1 | CCCN(CCOc1c(Cl)cc(Cl)cc1Cl)C(=O)c1cccnc1 [Compound 1, N-(n-propyl), N-(3-pyridylcarbonyl)ethanolamine 2,4,6-trichlorophenylether] | 0% | 100% | 96% | 50% | 0% | 86% | 46%
2 | CCCN(CCOc1c(Cl)cc(Cl)cc1Cl)C(=O)c1cncnc1 [Compound 2, N-(n-propyl), N-(5-pyrimidylcarbonyl)ethanolamine 2,4,6-trichlorophenylether] | 0% | 100% | 98% | 3% | 0% | 38% | 93%
3 | CCCN(CCOc1c(Cl)cc(Cl)cc1Cl)C(=O)c1cnccn1 [Compound 3, N-(n-propyl), N-(2-pyrazinylcarbonyl)ethanolamine 2,4,6-trichlorophenylether] | 0% | 100% | 94% | 13% | 19% | 75% | 62%
4 | CCCN(CCOc1ccc(C(C)(C)C)cc1)C(=O)c1cnccn1 [Compound 5] | 0% | 94% | 36% | 28% | 0% | – | 17%
5 | CCCN(CCOc1ccc(C(C)(C)C)cc1)C(=O)c1cccnc1 [Compound 6] | 10% | 98% | 50% | 0% | 0% | – | 0%
6 | CCCN(CCOc1ccc(Cl)cc1Cl)C(=O)c1cnccn1 [Compound 7] | 0% | 21% | 0% | 13% | 3% | 0% | 15%
7 | CCCN(CCOc1ccc(Cl)cc1Cl)C(=O)c1cccnc1 [Compound 8] | 0% | 50% | 40% | 0% | 3% | 0% | 45%
8 | CCCN(CCOc1c(Cl)cc(Cl)cc1Cl)C(=O)c1ccccn1 [Compound 9] | 0% | 0% | 0% | 19% | 50% | 10% | 9%
9 | CCCN(CCOc1c(Cl)cc(Cl)cc1Cl)C(=O)c1ccncc1 [Compound 10] | 11% | 0% | 32% | 9% | 29% | 0% | 0%
10 | CCCN(CCSc1c(Cl)cccc1Cl)C(=O)c1cccnc1 [Compound 11, N-(n-propyl), N-(3-pyridylcarbonyl) 2-aminoethanethiol 2,6-dichlorophenylthioether] | 0% | 58% | 60% | 13% | 0% | 29% | 0%
11 | CCCN(CCOc1c(Cl)cc(Cl)cc1Cl)C(=O)c1cncn1C [Compound 12, N-(n-propyl), N-(1-methyl-5-imidazolylcarbonyl)ethanolamine 2,4,6-trichlorophenylether] | 18% | 100% | 36% | 19% | 29% | 0% | 45%
12 | CCCN(CCOc1c(Cl)cccc1Cl)C(=O)c1cncnc1 [Compound 13] | 4% | 81% | 97% | 10% | 0% | – | 80%
13 | CCCN(CCOc1c(C)cc(C)cc1C)C(=O)c1cccnc1 [Compound 14] | 0% | 100% | 67% | 0% | 0% | 64% | 85%
14 | CCCN(CCOc1c(C)cc(C)cc1C)C(=O)c1cnccn1 [Compound 15] | 0% | 44% | 67% | 0% | 0% | 29% | 15%
15 | CCCN(CCOc1c(C)cc(C)cc1C)C(=O)c1cncnc1 [Compound 16] | 0% | 50% | 83% | 7% | 0% | 36% | 38%
16 | CCCN(CCOc1c(Cl)cc(Cl)cc1Cl)C(=S)c1cccnc1 [Compound 17, N-(n-propyl), N-(3-pyridylthiocarbonyl)ethanolamine 2,4,6-trichlorophenylether] | 0% | 100% | 87% | 4% | 0% | 100% | 62%
17 | CCCN(CCOc1c(Cl)cc(Cl)cc1Cl)C(=S)c1cnccn1 [Compound 18] | 0% | 54% | – | 43% | 0% | – | 85%
18 | CCCN(CCCOc1c(Cl)cc(Cl)cc1Cl)C(=O)c1cccnc1 [Compound 19] | 10% | 70% | 0% | 30% | 0% | 96% | 38%
19 | CCCN(C(=O)c1cccnc1)C(C)COc1c(Cl)cc(Cl)cc1Cl (stereo not shown) [Compound 20, N-(n-propyl), N-(3-pyridylcarbonyl)propanol-2-amine 2,4,6-trichlorophenylether] | 0% | 93% | – | 7% | 23% | 0% | 0%
20 | CCCN(C(=O)c1cnccn1)C(C)COc1c(Cl)cc(Cl)cc1Cl (stereo not shown) [Compound 21, N-(n-propyl), N-(2-pyrazinylcarbonyl)propanol-2-amine 2,4,6-trichlorophenylether] | 0% | 71% | – | 67% | 23% | 0% | 0%
21 | CCCN(Cc1c(Cl)cccc1Cl)C(=O)c1cccnc1 [Compound 29] | 0% | 48% | 50% | 27% | 0% | – | 0%
